Measured values taken from patent US7119182B1 (The Regents of the University of California, priority 1991, dated 2006).
Substitutions are numbered along the chain they refer to. Square brackets hold non-standard residues; d marks the D form. Peptide text beside a SMILES is read from it. * marks the point of attachment. Cha = N[C@@H](CC1CCCCC1)C(=O)O; Piv = CC(C)(C)C(=O)*; Mpa = O=C(O)CCS

Assays:
thrombin = thrombin (Homo sapiens, UniProt P00734); assay: Inhibition of thrombin-induced platelet activation (ATP secretion) by thrombin inhibitor peptides; type: cell-based
Procedure: (§1) About 20 μl Chromolume® reagent (Chronolog Corporation, Havertown, Pa.) is added. In addition to measuring aggregation, ATP secretion is assessed. […] Platelet ATP secretion is measured in a lumiaggregometer as luminescence signal. […] Preincubation is not necessary for testing agonists or antagonists which interact directly with the receptor.
Three antagonist peptides of the invention […] (LDPRP peptide) (SEQ ID NO:74), F^†[…] (F^†PRP peptide) (SEQ ID NO:224) and […] (shortened LDPRP peptide) (SEQ ID NO:190), were tested for their ability to inhibit thrombin-induced platelet activation. […] The mixtures were added in a total volume of 20 μl phosphate buffered saline to 480 μl of platelets prepared and suspended as described in the description under the heading “Assays” hereinabove. Various concentrations of the candidate peptides were used.

thrombin receptor = biological target: T1, thrombin receptor (Homo sapiens, UniProt P25116); assay: Platelet activation/aggregation assays in the presence of thrombin, antagonist peptides; type: cell-based; conditions: read-out: IC50 (50% inhibition of activation or aggregation)
T1 construct: In this assay, washed human platelets are prepared by the method of Baenzinger; endogenous in cells; host or cells: washed human platelets
T1 sequence (P25116 22-425): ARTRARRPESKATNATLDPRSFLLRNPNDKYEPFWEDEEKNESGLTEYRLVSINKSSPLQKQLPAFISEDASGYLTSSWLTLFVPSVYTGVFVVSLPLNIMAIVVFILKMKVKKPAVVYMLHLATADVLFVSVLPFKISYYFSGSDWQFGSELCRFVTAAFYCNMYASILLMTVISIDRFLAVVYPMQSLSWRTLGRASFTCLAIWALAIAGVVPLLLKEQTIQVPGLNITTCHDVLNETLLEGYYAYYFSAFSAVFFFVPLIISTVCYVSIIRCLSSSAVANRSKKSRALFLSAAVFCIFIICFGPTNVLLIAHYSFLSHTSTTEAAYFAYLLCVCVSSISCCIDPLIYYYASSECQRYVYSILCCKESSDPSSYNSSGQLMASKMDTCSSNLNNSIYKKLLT
Procedure: Platelet Aggregation: In this assay, washed human platelets are prepared by the method of Baenzinger, M. G., Meth Enzymol (1974) 31:149–155, or as described by Charo, I. F., et al., J Clin Invest (1977) 63:866–873.
Washed platelets are suspended in modified Tyrode's buffer, pH 7.4 with 2 mM magnesium and 1 mM calcium at a concentration of 10^8 platelets/ml.
as §1
Platelet Aggregation Assay Using Microtiter Plates: Thrombin- or agonist-mediated platelet aggregation as measured with washed platelets in 96-well microtiter plates was performed as described (Fratantoni, J. C. et al., Am J Clin Pathol (1990) 94:613–617).

[1] = biological target: T2, wild-type thrombin receptor (Homo sapiens, UniProt P25116, C364S/L238V); assay: ^45Ca release by oocytes expressing wild-type thrombin receptor cRNA; type: cell-based; conditions: control peptide added at 100 μM
T2 construct: expressed in transfected cells; host or cells: Xenopus laevis oocytes microinjected with cRNA
T2 sequence (P25116 22-425 L238V/C364S): T1 sequence (P25116 22-425) with L217V, C343S
Procedure: (§2) Briefly, intracellular calcium pools are labeled by incubating groups of 30 oocytes in 300 μl calcium-free MBSH containing 50 μCi ^45CaCl2 (10–40 mCi/mg Ca; Amersham) for 4 hours at RT. The labeled oocytes are washed, then incubated in MBSH II without antibiotics for 90 minutes. Groups of 5 oocytes are selected and placed in individual wells in a 24-well tissue culture plate (Falcon 3047) containing 0.5 ml/well MBSH II without antibiotics. This medium is removed and replaced with fresh medium every 10 minutes; the harvested medium is analyzed by scintillation counting to determine ^45Ca released by the oocytes during each 10-minute incubation. The 10-minute incubations are continued until a stable baseline of ^45Ca release per unit time is achieved. Two additional 10-minute collections are obtained, then test medium including agonist is added and agonist-induced ^45Ca release determined.
(§3) The control peptide […] (FSLL peptide) (SEQ ID NO:107) was added at 100 μM and elicited no response.

washed human platelets [2] = biological target: T3, washed human platelets (Homo sapiens, UniProt P25116); conditions: for Platelet aggregation activity of control peptides: concentrations as high as 200 μM (not shown)
T3 sequence (P25116 42-425): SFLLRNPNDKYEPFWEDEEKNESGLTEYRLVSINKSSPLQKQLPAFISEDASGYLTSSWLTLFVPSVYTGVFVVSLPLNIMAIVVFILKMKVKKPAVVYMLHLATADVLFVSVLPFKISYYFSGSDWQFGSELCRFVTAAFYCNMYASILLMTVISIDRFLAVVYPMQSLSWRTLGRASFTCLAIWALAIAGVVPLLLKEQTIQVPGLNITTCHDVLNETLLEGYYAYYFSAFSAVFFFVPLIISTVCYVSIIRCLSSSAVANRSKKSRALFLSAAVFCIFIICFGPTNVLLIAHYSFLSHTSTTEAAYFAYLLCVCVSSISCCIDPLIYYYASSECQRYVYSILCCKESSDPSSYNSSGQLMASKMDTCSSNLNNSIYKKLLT

washed human platelets [3] = biological target: T3, washed human platelets; assay: Platelet ATP secretion in response to agonist peptide; type: cell-based; conditions: for Platelet ATP secretion activity of control peptides: concentrations as high as 200 μM (not shown)
Procedure: as §1
Washed human platelets were prepared as described by Baenzinger, N. G., Meth Enz (1974) 31:149–155; and Charo, I. F., et al., J Clin Invest (1977) 63:866–873. Agonist-induced responses were assessed as described above.
Platelet ATP secretion in response to the indicated final concentrations of “new amino-terminal” peptide was also followed by lumiaggregometry, and the results are shown in FIG. 4.
The data shown in FIG. 4 are raw tracings representative of aggregation or secretion responses obtained in triplicate for each agonist concentration, and are representative of results obtained in more than five separate experiments.

uninjected oocytes = assay: Agonist activity on uninjected oocytes; type: cell-based, Xenopus laevis; conditions: uninjected oocytes (not shown)
Procedure: as §2, §3
The agonist SFLL peptide has no activity on uninjected oocytes (not shown). Qualitatively identical results were obtained when agonist-induced inward current in voltage-clamped oocytes was used as an endpoint rather than agonist-induced ^45Ca release.

CCL-39 cells = assay: Mitogenic effect, tritiated thymidine incorporation in CCL-39 fibroblasts; type: cell-based, hamster; conditions: 100 μM, 48 hours, quiescent CCL-39 in serum-free medium; FIG. 5
Procedure: The fibroblast cell line CCL-39 was made quiescent in serum-free medium and then treated for 48 hours with the candidate agonist in the presence of tritiated thymidine. The incorporation of label into DNA was then determined as TCA-insoluble activity, shown as cpm in FIG. 5 using standard techniques. The data shown in the figure represent the mean of six replicate determinations plus or minus 95% confidence.

`CC(C)C[C@H](NC(=O)[C@H](CC(C)C)NC(=O)[C@H](Cc1ccccc1)NC(=O)[C@@H]1CCCN1C(=O)[C@H](CCCNC(=N)N)NC(=O)[C@@H]1CCCN1C(=O)[C@H](N)Cc1ccccc1)C(=O)N[C@@H](CCCNC(=N)N)C(=O)N[C@@H](CC(N)=O)C(=O)N1CCC[C@H]1C(=O)N[C@@H](CC(N)=O)C(=O)N[C@@H](CC(=O)O)C(=O)N[C@@H](CCCCN)C(=O)N[C@@H](Cc1ccc(O)cc1)C(=O)N[C@@H](CCC(=O)O)C(=O)N1CCC[C@H]1C(=O)N[C@@H](Cc1ccccc1)C(=O)N[C@@H](Cc1c[nH]c2ccccc12)C(=O)N[C@@H](CCC(=O)O)C(=O)N[C@@H](CC(=O)O)C(=O)N[C@@H](CCC(=O)O)C(=O)N[C@@H](CCC(=O)O)C(=O)N[C@@H](CCCCN)C(=O)N[C@@H](CC(N)=O)C(=O)N[C@@H](CCC(=O)O)C(=O)N[C@@H](CO)C(=O)O` [F^†PRP peptide] (H-[dF]PRPFLLRNPNDKYEPFWEDEEKNES-OH) was tested. Which IC50 (thrombin) did it give?
Its IC50 is ~0.2 µM.

With `C[C@H](NC(=O)[C@H](CC(=O)O)NC(=O)[C@H](CC(N)=O)NC(=O)[C@@H]1CCCN1C(=O)[C@H](CC(N)=O)NC(=O)[C@H](CCCNC(=N)N)NC(=O)[C@H](CC1CCCCC1)NC(=O)[C@H](CC1CCCCC1)NC(=O)[C@H](Cc1ccccc1)NC(=O)CCS)C(N)=O` [Mpr-F(Cha) (Cha)RNPNDA-NH2] ([Mpa]F[Cha][Cha]RNPNDA-NH2) as the compound, how does the IC50 (thrombin receptor) read?
Its IC50 is 50 µM.

Which IC50 (thrombin receptor) does the source give for `N=C(N)NCCC[C@H](NC(=O)[C@H](CC1CCCCC1)NC(=O)[C@H](CC1CCCCC1)NC(=O)[C@H](Cc1ccccc1)NC(=O)CCS)C(=O)N[C@@H](CC(N)=O)C(=O)N1CCC[C@H]1C(=O)N[C@@H](CC(N)=O)C(=O)N[C@@H](CC(=O)O)C(=O)N[C@@H](CCCCN)C(=O)N[C@@H](Cc1ccc(O)cc1)C(N)=O` [Mpr-F(Cha) (Cha)RNPNDKY-NH2] ([Mpa]F[Cha][Cha]RNPNDKY-NH2) here?
The IC50 was 75 µM.

With `N=C(N)NCCC[C@H](NC(=O)[C@H](CC1CCCCC1)NC(=O)[C@H](CC1CCCCC1)NC(=O)[C@H](Cc1ccccc1)NC(=O)CCS)C(=O)N[C@@H](CC(N)=O)C(=O)N1CCC[C@H]1C(=O)N[C@@H](CC(N)=O)C(=O)N[C@@H](CC(=O)O)C(=O)N[C@@H](CCCCN)C(=O)N[C@@H](Cc1ccc(O)cc1)C(=O)O` [Mpr-F(Cha) (Cha)RNPNDKY] ([Mpa]F[Cha][Cha]RNPNDKY-OH) as the compound, how does the IC50 (thrombin receptor) read?
The IC50 was 40 µM.

For `CC(C)C[C@H](NC(=O)[C@H](CC(C)C)NC(=O)[C@H](Cc1ccccc1)NC(=O)C(C)(C)C)C(=O)N[C@@H](CCCNC(=N)N)C(N)=O` [Pivaloyl-FLLR-NH2] (Piv-FLLR-NH2), which IC50 (thrombin receptor) is on record?
Its IC50 is 1000 µM.

With “FSLLRNPNDKYEPF [FSLL peptide, control peptide, agonist with the N-terminus scrambled to FS]” as the compound, how does the “peptide-induced ^45Ca release response” value [1] read?
Its value is “no response”.

What about the “Platelet aggregation activity of control peptides” value (washed human platelets [2]) of the same compound?
The value was “without activity”.

And the “Platelet ATP secretion activity of control peptides” value (washed human platelets [3])?
Its value is “without activity”.

How did the “Platelet aggregation activity of control peptides” value (washed human platelets [2]) turn out when “LLRNPNDKYEPF [control peptide, reference compound]” was run?
The value was “without activity”.

And the “Platelet ATP secretion activity of control peptides” value (washed human platelets [3])?
The value was “without activity”.

With SFLLRNPNDKYEPF [“SFLL” peptide] as the compound, how does the “Platelet aggregation compared with thrombin” value (washed human platelets [2]; peptide at 100 μM, FIG. 4) read?
The value was “comparably active to 20 μM thrombin”.

And the “agonist activity on uninjected oocytes” value (uninjected oocytes)?
The value was “no activity”.

And the “mitogenic effect (tritiated thymidine incorporation into DNA)” value (CCL-39 cells)?
Its value is “significant stimulation of growth”.

What about the “Platelet ATP secretion compared with thrombin” value (washed human platelets [3]; peptide at 100 μM, FIG. 4) of the same compound?
Its value is “comparably active to 20 μM thrombin”.
